# From publication PMC5373622, “Screening for AMPA receptor auxiliary subunit specific modulators” (PLoS ONE, 2017)
# Several values for one entry are separate records, joined by “and”; a condition that tells them apart may be missing. Identical values can stand only once. Like-named read-outs stand apart in the source and are kept apart here.
# Legend:
# GluA2-stargazin = conditions: previously reported; cited from earlier work
# [1] = biological target: GluA2flip(R)-CNIH3 (A2R-C3 TetON HEK293 cells) (Homo sapiens, UniProt P42262, Q607R); assay: VSD assay (counter-screen, CRC) on A2R-C3 cells; conditions: for CMPDmaxmin: max-min 8-100 s; for CMPDmaxmin / CMPDSlope: compound only; for Glumaxmin: max-min normalized value 301-380 s; for Glumaxmin / GluSlope: compound+glutamate; for BaselineReturn: max 250-255 s minus min 0-5 s; for GluSlope: slope of normalized value 310-315 s; for CMPDSlope: slope 11-18 s
# GluA2flip(R)-CNIH3 (A2R-C3 TetON HEK293 cells), sequence (P42262 25-883 isoform P42262-2 Q607R limits assumed): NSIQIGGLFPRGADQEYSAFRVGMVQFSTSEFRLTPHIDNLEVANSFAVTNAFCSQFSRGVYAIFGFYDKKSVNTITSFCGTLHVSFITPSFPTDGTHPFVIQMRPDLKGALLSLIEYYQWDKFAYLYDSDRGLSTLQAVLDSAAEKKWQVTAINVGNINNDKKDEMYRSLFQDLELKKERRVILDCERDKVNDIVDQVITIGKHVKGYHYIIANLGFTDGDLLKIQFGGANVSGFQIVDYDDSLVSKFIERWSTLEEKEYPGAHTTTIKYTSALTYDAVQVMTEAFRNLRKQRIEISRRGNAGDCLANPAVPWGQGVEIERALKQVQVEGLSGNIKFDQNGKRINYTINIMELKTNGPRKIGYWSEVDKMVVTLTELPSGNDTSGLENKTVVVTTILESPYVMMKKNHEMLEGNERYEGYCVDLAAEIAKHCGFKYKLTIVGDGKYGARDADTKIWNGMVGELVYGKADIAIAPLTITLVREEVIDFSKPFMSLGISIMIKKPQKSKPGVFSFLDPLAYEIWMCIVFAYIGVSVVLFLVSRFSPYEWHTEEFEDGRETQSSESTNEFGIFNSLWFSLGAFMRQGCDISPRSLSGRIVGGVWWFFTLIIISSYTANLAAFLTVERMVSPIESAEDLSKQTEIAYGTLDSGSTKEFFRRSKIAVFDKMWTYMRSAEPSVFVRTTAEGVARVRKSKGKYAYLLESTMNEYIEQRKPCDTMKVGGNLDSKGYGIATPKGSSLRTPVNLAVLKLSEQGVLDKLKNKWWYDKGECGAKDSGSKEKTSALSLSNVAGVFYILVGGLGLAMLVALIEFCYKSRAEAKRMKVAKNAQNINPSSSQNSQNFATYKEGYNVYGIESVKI
# GluA2flip(R)-CNIH3 (A2R-C3 TetON HEK293 cells), sequence (Q8TBE1 whole entry partner): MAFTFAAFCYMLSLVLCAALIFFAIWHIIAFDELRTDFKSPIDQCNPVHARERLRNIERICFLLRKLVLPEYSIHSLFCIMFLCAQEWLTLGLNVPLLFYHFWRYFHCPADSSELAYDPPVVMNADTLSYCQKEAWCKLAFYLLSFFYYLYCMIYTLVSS
# Excerpt: Cell lines used in the VSD assays were TetON HEK293 cells. This was the parental cell line for all stable cell lines created. We used GluA2flip(R) TetON HEK cell clone #4 that doxycycline (DOX) dependently expresses GluA2flip(R) (A2R). The A2R cells were used as the base cell line to derive cell lines that co-express auxiliary subunits.
# (§1) Greiner 384-pp round-bottom plates containing glutamate for the second add were dispensed by hand using a multi-channel pipet at 5X final concentration. A2R-stg cells were plated in 384-well BD PureCoat amine-coated plates (Corning Life Sciences) at 16k cells/well in DMEM medium supplemented with 10% heat-inactivated FBS and 100U/mL PenStrep antibiotic. […] Cells were incubated overnight (O/N) and washed 4 times in HBSS containing 20 mM HEPES, pH 7.4, on an ELX405CW liquid aspirator and dispenser (BioTek). Buffer was left in the wells and an equal amount of 2X FLIPR dye solution was added and incubated on the cells at room temperature for 45 min. Fluorescence signal was collected at 1 Hz using Ex. 480±20 nm/Em. 540±40 nm on a Hamamatsu Functional Drug Screening System 6000 (FDSS). Baseline signal was collected for 10 seconds followed by addition of 10 μl of 5X compound for a final concentration of 10 μM.
# This assay was carried out in the same way as the VSD screening assay except a 10-point concentration curve, from 40 μM to 10 nM, was plated in triplicate for each compound on a single 384-well plate. Data were summarized by plotting them as %max GLUslope against log [compound] that was fit to a four-parameter logistical model. %max GLUslope is defined as a normalized GLUslope expressed as a percentage of the mean maximum GLUslope, defined as 100, where background mean vehicle control (VHLslope) were subtracted from both values on a per plate basis. Thus, %max GLU slope = (GLUslope-mean VHLslope/mean maxGLUslope-mean VHLslope).
# [2] = biological target: GluA2flip(R)-stargazin (A2R-stg TetON HEK293 cells) (Homo sapiens, UniProt P42262, Q607R); assay: Voltage-sensitive dye (VSD) assay (primary screen, counter-screen, CRC) on A2R-stg cells; conditions: for BaselineReturn: max 250-255 s minus min 0-5 s; for CMPDmaxmin: max-min 8-100 s; for CMPDmaxmin / CMPDSlope: only compound present; for Glumaxmin: max-min normalized value 301-380 s; for Glumaxmin / GluSlope: compound and glutamate present; for GluSlope: slope 310-315 s; for CMPDSlope: slope 11-18 s
# GluA2flip(R)-stargazin (A2R-stg TetON HEK293 cells), sequence (P42262 25-883 isoform P42262-2 Q607R limits assumed): as the sequence (P42262 25-883 isoform P42262-2 Q607R limits assumed) above
# GluA2flip(R)-stargazin (A2R-stg TetON HEK293 cells), sequence (Q9Y698 whole entry partner): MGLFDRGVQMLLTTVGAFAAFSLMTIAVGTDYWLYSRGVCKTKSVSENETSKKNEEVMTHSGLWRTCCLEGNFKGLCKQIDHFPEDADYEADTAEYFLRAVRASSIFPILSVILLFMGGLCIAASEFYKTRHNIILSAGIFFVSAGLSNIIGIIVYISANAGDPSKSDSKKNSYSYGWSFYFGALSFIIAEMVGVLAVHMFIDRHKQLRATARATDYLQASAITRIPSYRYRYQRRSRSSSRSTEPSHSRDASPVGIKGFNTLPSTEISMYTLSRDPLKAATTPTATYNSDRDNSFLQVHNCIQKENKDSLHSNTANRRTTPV
# Description: Cell lines used in the VSD assays were TetON HEK293 cells. […] We used GluA2flip(R) TetON HEK cell clone #4 that doxycycline (DOX) dependently expresses GluA2flip(R) (A2R). The A2R cells were used as the base cell line to derive cell lines that co-express auxiliary subunits.
# as §1
# Hits were selected from this initial screen using 4 different criteria, which we termed CMPDslope, CMPDmaxmin, GLUslope, and GLUmaxmin. […] GLUslope is the fitted slope of the increase in fluorescence within 10 sec after adding glutamate. GLUmaxmin is the difference in the minimum and maximum value in fluorescence signal reached in the 100 sec window after adding glutamate. Compounds were classified as hits if they differed by 3 standard deviations of the mean for each criterion. Tier 1 hits were classified as those that hit in the GLUslope, GLUmaxmin, and CMPDmaxmin windows. Tier 2 hits were classified as compounds that hit in the GLUslope window and either the GLUmaxmin or CMPDmaxmin window. Tier 3 hits were classified as those that hit in only the GLUslope or the GLUmaxmin window. Tier 4 hits were classified as compounds that hit only in the CMPD window, CMPDslope or CMPDmaxmin. Hit selection was further narrowed using the criterion that their signal must return to near baseline values before entering the glutamate add window.
# VSD concentration response curves (CRCs): After the above counter-screens, compounds that remained positive were moved forward to collect complete CRCs for A2R-stg and A2R-C3 cell lines. This assay was carried out in the same way as the VSD screening assay except a 10-point concentration curve, from 40 μM to 10 nM, was plated in triplicate for each compound on a single 384-well plate. Data were summarized by plotting them as %max GLUslope against log [compound] that was fit to a four-parameter logistical model. %max GLUslope is defined as a normalized GLUslope expressed as a percentage of the mean maximum GLUslope, defined as 100, where background mean vehicle control (VHLslope) were subtracted from both values on a per plate basis. Thus, %max GLU slope = (GLUslope-mean VHLslope/mean maxGLUslope-mean VHLslope).
# [3] = 3.90625e-6 M, per well, plate 58169DST7
# [4] = 7.8125e-6 M, per well, plate 58169DST7
# [5] = 1.5625e-5 M, per well, plate 58169DST7
# [6] = 3.125e-5 M, per well, plate 58169DST7
# [7] = 6.25e-5 M, per well, plate 58169DST7
structure (smiles),measurement,setting,value
"O=C(c1ccc2c(c1)OCCO2)N1CCCCC1 [CX-546, 1-(1,4-benzodioxan-6-ylcarbonyl)piperidine]",EC50,GluA2-stargazin,563 µM
same,CMPDmaxmin,"[1]; 3.90625e-6 M ligand, per well",0.02275 and 0.02429 and 0.01798 and 0.02168
same,CMPDmaxmin,"[1]; 7.8125e-6 M ligand, per well",0.02523 and 0.02353 and 0.02165 and 0.01735
same,Glumaxmin,"[1]; 7.8125e-6 M ligand, per well",0.04101 and 0.05338 and 0.04284 and 0.03307 and 0.0299 and 0.0291
same,CMPDmaxmin,"[1]; 6.25e-5 M ligand, per well",0.02083 and 0.02655 and 0.02189 and 0.02084 and 0.01632
same,Glumaxmin,"[1]; 6.25e-5 M ligand, per well",0.04091 and 0.0333 and 0.02423 and 0.04193 and 0.044 and 0.03344
same,BaselineReturn,"[1]; 0.00025 M ligand, per well",0.0251 and 0.02832 and 0.03028 and 0.03411 and 0.02776 and 0.02771
same,CMPDmaxmin,"[1]; 0.00025 M ligand, per well",0.02518 and 0.02777 and 0.02573 and 0.03151 and 0.03447 and 0.02604
same,Glumaxmin,"[1]; 0.00025 M ligand, per well",0.07039 and 0.07337 and 0.08523 and 0.112 and 0.08025
same,GluSlope,"[1]; 0.00025 M ligand, per well",6.934e-6 and 8.592e-6 and 7.437e-6 and 1.202e-5 and 1.111e-5 and 6.283e-6
same,BaselineReturn,"[1]; 0.0005 M ligand, per well",0.05295 and 0.05148 and 0.05075 and 0.04719 and 0.05673 and 0.04937
same,CMPDmaxmin,"[1]; 0.0005 M ligand, per well",0.05637 and 0.05305 and 0.05109 and 0.05302 and 0.05564 and 0.06158
same,Glumaxmin,"[1]; 0.0005 M ligand, per well",0.1143 and 0.1458 and 0.1743
same,CMPDSlope,"[1]; 0.0005 M ligand, per well",2.7882e-6 and 3.22e-6 and 3.04e-6 and 3.857e-6 and 3.969e-6 and 3.136e-6
same,GluSlope,"[1]; 0.0005 M ligand, per well",1.038e-5 and 1.007e-5 and 1.121e-5 and 1.228e-5 and 1.22e-5 and 1.66e-5
same,BaselineReturn,"[1]; 0.001 M ligand, per well",0.1285 and 0.1243 and 0.1327 (2×) and 0.1383 and 0.1333
same,CMPDmaxmin,"[1]; 0.001 M ligand, per well",0.1223 and 0.1248 and 0.1314 and 0.1303 and 0.1374 and 0.1301
same,CMPDSlope,"[1]; 0.001 M ligand, per well",6.79e-6 and 6.675e-6 and 5.635e-6 and 5.488e-6 and 6.247e-6 and 7.073e-6
same,activity at 250 µM,"[1]; HEK293, read-out: AVE %MAXCMPDslope, 0.00025 M ligand, average over wells",20.2%
same,activity at 1000 µM,"[1]; HEK293, read-out: AVE %MAXCMPDslope, 0.001 M ligand, average over wells",29.1%
same,activity at […],"[1]; HEK293, read-out: AVE %MAXCMPDslope, […] ligand, average over wells",18.9%
same,activity at 250 µM,"[1]; HEK293, read-out: AVE %MAXslope, 0.00025 M ligand, average over wells",33.8%
same,activity at 500 µM,"[1]; HEK293, read-out: AVE %MAXslope, 0.0005 M ligand, average over wells",40.3%
same,activity at 1000 µM,"[1]; HEK293, read-out: AVE %MAXslope, 0.001 M ligand, average over wells",54.1%
same,activity at […],"[1]; HEK293, read-out: AVE %MAXslope, […] ligand, average over wells",25.6%
same,activity at 250 µM,"[1]; HEK293, read-out: pctMAXslope, 0.00025 M ligand, GluSlope as percentage MAX, per well",30.3%
same,activity at 500 µM,"[1]; HEK293, read-out: pctMAXslope, 0.0005 M ligand, GluSlope as percentage MAX, per well",37%
same,activity at […],"[1]; HEK293, read-out: pctMAXslope, […] ligand, GluSlope as percentage MAX, per well",21%
same,activity at 250 µM,"[1]; HEK293, read-out: pctMAXslopeCMPD, 0.00025 M ligand, CMPDSlope as percentage MAX of GluSlope controls, per well",19.4%
same,activity at 500 µM,"[1]; HEK293, read-out: pctMAXslopeCMPD, 0.0005 M ligand, CMPDSlope as percentage MAX of GluSlope controls, per well",22.3%
same,activity at 1000 µM,"[1]; HEK293, read-out: pctMAXslopeCMPD, 0.001 M ligand, CMPDSlope as percentage MAX of GluSlope controls, per well",30%
same,activity at […],"[1]; HEK293, read-out: pctMAXslopeCMPD, […] ligand, CMPDSlope as percentage MAX of GluSlope controls, per well",18.5%
same,EC50,[2],59.4 µM
same,"CMPDmaxmin (maximal - minimal normalized value, 8-100 s, only compound present)",[2]; [3],0.02005 and 0.02265 and 0.02255 and 0.0215 and 0.02263
same,pctMAX (Glumaxmin as percentage MAX),[2]; [3],-20.3423% and -18.5877% and -17.4231% and -25.653% and -23.4431%
same,pctMAXslope (GluSlope as percentage MAX),[2]; [3],19.0119% and 16.1163% and 16.1435% and 23.5293% and 24.5477% and 19.9769%
same,pctMAXslopeCMPD (CMPDSlope as percentage MAX),[2]; [3],26.8078% and 27.859% and 27.6784% and 25.3948% and 25.8066% and 27.049%
same,"CMPDmaxmin (maximal - minimal normalized value, 8-100 s, only compound present)",[2]; [4],0.02204 and 0.02518 and 0.02221 and 0.01901
same,pctMAXslope (GluSlope as percentage MAX),[2]; [4],18.0524% and 15.893% and 18.8435% and 18.5798% and 25.5404% and 27.1839%
same,pctMAXslopeCMPD (CMPDSlope as percentage MAX),[2]; [4],27.7492% and 27.8022% and 28.8582% and 27.2592% and 26.4835% and 26.0048%
same,"CMPDmaxmin (maximal - minimal normalized value, 8-100 s, only compound present)",[2]; [5],0.02181 and 0.01695 and 0.02869 and 0.01943 and 0.02297
same,pctMAXslopeCMPD (CMPDSlope as percentage MAX),[2]; [5],28.6064% and 25.6086% and 27.9557% and 25.483% and 25.9044% and 26.6639%
same,pctMAX (Glumaxmin as percentage MAX),[2]; [6],-24.1315% and -27.3641% and -24.1538% and -25.136% and -22.907% and -18.6431%
same,pctMAXslope (GluSlope as percentage MAX),[2]; [6],27.6745% and 23.6277% and 22.7715% and 21.1161% and 24.5423% and 29.8099%
same,pctMAXslopeCMPD (CMPDSlope as percentage MAX),[2]; [6],26.044% and 27.2438% and 26.2272% and 24.5792% and 27.7844% and 28.3201%
same,BaselineReturn (maximal normalized value 250-255 s minus minimal 0-5 s),[2]; [7],0.01812 and 0.0231 and 0.02286
same,"CMPDmaxmin (maximal - minimal normalized value, 8-100 s, only compound present)",[2]; [7],0.02793 and 0.02317 and 0.02528
same,pctMAXslope (GluSlope as percentage MAX),[2]; [7],40.7941% and 49.9185% and 35.6482%
same,pctMAXslopeCMPD (CMPDSlope as percentage MAX),[2]; [7],27.4558% and 28.8276% and 28.6616%
same,BaselineReturn,[2]; 6.25e-5 M,0.01973 and 0.018 and 0.01152
same,CMPDmaxmin,[2]; 6.25e-5 M,0.02536 and 0.01826 and 0.01839
same,Glumaxmin,[2]; 6.25e-5 M,0.2031 and 0.2196 and 0.1717
same,GluSlope,[2]; 6.25e-5 M,6.2051e-6 and 9.036e-6 and 7.987e-6
same,BaselineReturn,[2]; 0.00025 M,0.05169 and 0.04966 and 0.04304 and 0.05412 and 0.05858 and 0.04633
same,CMPDmaxmin,[2]; 0.00025 M,0.05366 and 0.04763 and 0.04669 and 0.05717 and 0.05497 and 0.04716
same,Glumaxmin,[2]; 0.00025 M,0.3546 and 0.3256 and 0.3581 and 0.3601 and 0.3987 and 0.3619
same,CMPDSlope,[2]; 0.00025 M,2.511e-6 and 1.582e-6 and 1.531e-6 and 1.914e-6 and 1.992e-6 and 1.6067e-6
same,GluSlope,[2]; 0.00025 M,1.516e-5 and 1.442e-5 and 1.434e-5 and 1.326e-5 and 1.8177e-5 and 1.566e-5
same,BaselineReturn,[2]; 0.0005 M,0.1016 and 0.09236 and 0.09814 and 0.1005 and 0.08945 and 0.09494
same,CMPDmaxmin,[2]; 0.0005 M,0.09292 and 0.08599 and 0.08883 and 0.08871 and 0.09266 and 0.08518
same,Glumaxmin,[2]; 0.0005 M,0.4227 and 0.415 and 0.4148 and 0.4609 and 0.4831 and 0.4327
same,CMPDSlope,[2]; 0.0005 M,3.674e-6 and 4.188e-6 and 3.738e-6 and 3.852e-6 and 5.683e-6 and 4.257e-6
same,GluSlope,[2]; 0.0005 M,1.777e-5 and 1.508e-5 and 1.548e-5 and 1.731e-5 and 1.8778e-5 and 1.858e-5
same,BaselineReturn,[2]; 0.001 M,0.1819 and 0.178 and 0.2248 and 0.2011 and 0.1897 and 0.1856
same,CMPDmaxmin,[2]; 0.001 M,0.1715 and 0.1673 and 0.213 and 0.1892 and 0.174 and 0.1789
same,Glumaxmin,[2]; 0.001 M,0.4573 and 0.4826 and 0.4107 and 0.4115 and 0.4861 and 0.4796
same,CMPDSlope,[2]; 0.001 M,9.085e-6 and 8.904e-6 and 9.403e-6 and 8.729e-6 and 8.585e-6 and 8.384e-6
same,GluSlope,[2]; 0.001 M,1.548e-5 and 1.672e-5 (2×) and 1.1033e-5 and 1.693e-5 and 1.578e-5
same,activity at 250 µM,"[2]; HEK293, read-out: AVE %MAXCMPDslope, 0.00025 M, average of wells",30.3%
same,activity at 500 µM,"[2]; HEK293, read-out: AVE %MAXCMPDslope, 0.0005 M, average of wells",34.5%
same,activity at 1000 µM,"[2]; HEK293, read-out: AVE %MAXCMPDslope, 0.001 M, average of wells",42.6%
same,activity at […],"[2]; HEK293, read-out: AVE %MAXCMPDslope, […], average of wells",29.5%
same,activity at 250 µM,"[2]; HEK293, read-out: AVE %MAXslope, 0.00025 M, average of wells",53.6%
same,activity at 500 µM,"[2]; HEK293, read-out: AVE %MAXslope, 0.0005 M, average of wells",57.1%
same,activity at 1000 µM,"[2]; HEK293, read-out: AVE %MAXslope, 0.001 M, average of wells",54.1%
same,activity at […],"[2]; HEK293, read-out: AVE %MAXslope, […], average of wells",47%
same,activity at 250 µM,"[2]; HEK293, read-out: pctMAX, 0.00025 M, Glumaxmin as percentage MAX (vhl and glutamate controls)",30.3%
same,activity at 500 µM,"[2]; HEK293, read-out: pctMAX, 0.0005 M, Glumaxmin as percentage MAX (vhl and glutamate controls)",42.2%
same,activity at 1000 µM,"[2]; HEK293, read-out: pctMAX, 0.001 M, Glumaxmin as percentage MAX (vhl and glutamate controls)",48.3%
same,activity at 250 µM,"[2]; HEK293, read-out: pctMAXslope, 0.00025 M, GluSlope as percentage MAX",53.6%
same,activity at 500 µM,"[2]; HEK293, read-out: pctMAXslope, 0.0005 M, GluSlope as percentage MAX",58.2%
same,activity at 1000 µM,"[2]; HEK293, read-out: pctMAXslope, 0.001 M, GluSlope as percentage MAX",54.2%
same,activity at […],"[2]; HEK293, read-out: pctMAXslope, […], GluSlope as percentage MAX",49.2%
same,activity at 250 µM,"[2]; HEK293, read-out: pctMAXslopeCMPD, 0.00025 M, CMPDSlope as percentage MAX",31.5%
same,activity at 500 µM,"[2]; HEK293, read-out: pctMAXslopeCMPD, 0.0005 M, CMPDSlope as percentage MAX",33.5%
same,activity at 1000 µM,"[2]; HEK293, read-out: pctMAXslopeCMPD, 0.001 M, CMPDSlope as percentage MAX",43%
same,activity at […],"[2]; HEK293, read-out: pctMAXslopeCMPD, […], CMPDSlope as percentage MAX",28.5%
same,concentrations giving a slight increase in fluorescence in the absence of glutamate,[2]; compound-only window,> 250 µM
